Source: ChEMBL document CHEMBL6177944, “Derivatization of ophiobolin A and cytotoxicity toward breast and glioblastoma cancer stem cells: Varying the ketone and unsaturated aldehyde moieties” (Bioorg Med Chem Lett, 2025)
The source made the active and inactive calls. The calls are words filed in the database; no cut-off is given here.

Assays:
[1] = (§1) Cytotoxicity against HMLE cells expressing Twist EMT+; format: functional, cell-based; details: Homo sapiens
[2] = Cytotoxicity against HMLE cells; format: toxicity, cell-based; details: human
MCF7 = assay: Cytotoxicity against human MCF7 cells; format: functional, cell-based
MDA-MB-231 = assay: Cytotoxicity against human MDA-MB-231 cells; format: functional, cell-based
[3] = Selectivity index, ratio of IC50 for cytotoxicity against human MCF7 cells to IC50 for cytotoxicity against human MDA-MB-231 cells; format: cell-based
[4] = Selectivity index, ratio of IC50 for cytotoxicity against HMLE cells to IC50 for cytotoxicity against human HMLE cells expressing Twist EMT+; format: toxicity, cell-based; details: HMLE cells and HMLE cells expressing Twist (EMT+), read-out: Ratio IC50
T98G = assay: Cytotoxicity against human T98G cells; format: functional, cell-based
[5] = Cytotoxicity against human GBM43 cells; format: functional, cell-based; details: GBM43 cell
[6] = Selectivity index, ratio of IC50 for cytotoxicity against human T98G cells to IC50 for cytotoxicity against human GBM43 cells; format: functional
HMLE = assay: as §1; format: functional, cell-based; details: Homo sapiens
[7] = Cytotoxicity against HMLE cells assessed as reduction in cell viability at 1 uM relative to control; format: toxicity, cell-based; details: human

CC(C)=C[C@H]1C[C@H](C)[C@]2(CC[C@]3(C)C[C@H]4[C@H]5/C(=C\C[C@H]32)CO[C@@]5(O)C[C@@]4(C)O)O1
IC50 [1]: 8.84 µM
IC50 [2]: 25.9 µM
IC50 (MCF7): 107 µM
IC50 (MDA-MB-231): 128 µM
Ratio IC50 [3]: ~ 0.84
selectivity ratio [4]: ~2.9

CC(C)=C[C@H]1C[C@H](C)[C@]2(CC[C@]3(C)C[C@@H]4C(C)=CC(=O)[C@@H]4/C(CO)=C\C[C@H]32)O1
IC50 (T98G): 298 µM
IC50 [5]: 24 µM
Ratio IC50 [6]: ~12

CC(C)=C[C@H]1C[C@H](C)[C@]2(CC[C@]3(C)C[C@H]4[C@H]5/C(=C\C[C@H]32)C(=O)O[C@H]5C[C@@]4(C)O)O1 [OPHIOBOLIN A LACTONE]
IC50 [1]: 63.6 µM
IC50 [2]: 91 µM
IC50 (MCF7): 232 µM
IC50 (MDA-MB-231): 313 µM
IC50 (T98G): 102 µM
IC50 [5]: 8.6 µM
Ratio IC50 [3]: ~ 0.74
selectivity ratio [4]: ~1.4
Ratio IC50 [6]: ~12

COc1cccc2c1C(=O)c1c(O)c3c(c(O)c1C2=O)C[C@@](O)(C(=O)CO)C[C@@H]3O[C@H]1C[C@H](N)[C@H](O)[C@H](C)O1 [DOXORUBICIN]
Activity (HMLE): inactive
Activity [7]: < 50%

CC(C)=C[C@H]1C[C@H](C)[C@]2(CC[C@]3(C)C[C@H]4[C@H](C(=O)C[C@@]4(C)O)/C(C=O)=C\C[C@H]32)O1 [OPHIOBOLIN A]
IC50 [1]: 0.029 µM
IC50 [2]: 0.063 µM
IC50 (T98G): 1.9 µM
selectivity ratio [4]: ~2.1
Ratio IC50 [6]: ~9

CC(C)=C[C@H]1C[C@H](C)[C@]2(CC[C@]3(C)C[C@H]4[C@H]5/C(=C\C[C@H]32)C(O)O[C@H]5C[C@@]4(C)O)O1 (stereo partly specified)
IC50 [1]: 22.5 µM
IC50 [2]: 50.2 µM
IC50 (MCF7): 39.6 µM
IC50 (MDA-MB-231): 157 µM
Ratio IC50 [3]: ~ 0.25
selectivity ratio [4]: ~2.2

CC(C)=C[C@H]1C[C@H](C)[C@]2(CC[C@]3(C)C[C@H]4[C@H]5[C@@H](CC[C@H]32)[C@H](O)O[C@H]5C[C@@]4(C)O)O1
IC50 [1]: 123 µM
IC50 [2]: 58.1 µM
IC50 (MCF7): 149 µM
IC50 (MDA-MB-231): 136 µM
IC50 (T98G): 444 µM
IC50 [5]: 363 µM
Ratio IC50 [3]: ~ 1.1
selectivity ratio [4]: ~0.47
Ratio IC50 [6]: ~1.2

CC1(C)CC/C=C(/C=O)[C@H]2C(=O)C[C@@](C)(O)[C@H]2C1
IC50 (T98G): 859 µM
IC50 [5]: 106 µM
Ratio IC50 [6]: ~8

CC(C)=C[C@H]1C[C@H](C)[C@]2(CC[C@]3(C)C[C@H]4[C@@H](/C(CO)=C\C[C@H]32)[C@@H](O)C[C@@]4(C)O)O1
IC50 [1]: 134 µM
IC50 [2]: 140 µM
IC50 (MCF7): 387 µM
IC50 (MDA-MB-231): 384 µM
IC50 (T98G): > 1000 µM
IC50 [5]: > 1000 µM
Ratio IC50 [3]: ~ 1
selectivity ratio [4]: ~1
